# Measured values published in PubChem BioAssay (NCI).
#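 In this assay, cells in 96-well plates receive the compound at five concentrations for 48 hours. Endpoints are linearly interpolated between the surrounding concentrations. At the GI50, growth is halved. TGI is the concentration that stops growth completely.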
# What was measured:
# Assay in all cases: NCI tumour cell line growth inhibition, 48 h
# [1] = test system: A549 NSCLC
# [2] = test system: DLD-1 colon
# [3] = test system: HOP-92 NSCLC
# [4] = test system: MALME-3M melanoma
# [5] = test system: NCI-H226 lung
# [6] = test system: SF-295 CNS
# [7] = test system: UACC-62 melanoma
# [8] = test system: HCC-2998 colon
# [9] = test system: HCT-116 colon
# [10] = test system: OVCAR-3 ovarian
Structure (SMILES),TGI [1] [µM],TGI [2] [µM],TGI [3] [µM],TGI [4] [µM],TGI [5] [µM],TGI [6] [µM],TGI [7] [µM],TGI [8] [µM],TGI [9] [µM],TGI [10] [µM],GI50 [1] [µM],GI50 [8] [µM],GI50 [9] [µM],GI50 [3] [µM],GI50 [4] [µM],GI50 [5] [µM],GI50 [10] [µM],GI50 [6] [µM],GI50 [7] [µM]
O=[N+]([O-])c1cccc(C2SCc3nc4ccccc4n32)c1 (stereo not given),> 100,> 100,> 100,> 100,> 100,> 100,> 100,,,,,,,,,,,,
C/C=C/C=N/N(c1nnc(-c2ccccc2)c(-c2ccccc2)n1)S(=O)(=O)c1ccc(C)cc1,28.1,32.7,31.3,22.8,31.2,22.9,11.6,31.3,28,25.2,,,,,,,,,
O=C(c1cc(=O)c2ccc(O)cc2o1)c1ccc(Cl)cc1Cl,> 100,> 100,> 73.4,> 94.7,99.6,> 65.9,> 100,58.8,> 54.1,> 58.9,,,,,,,,,
CCCOc1ccc(/C(Cl)=C(\C=O)c2ccc(OC)c(OC)c2)cc1OCCC,> 100,> 100,51.2,38.8,32.4,88.3,19.8,15.4,10.8,> 100,,,,,,,,,
O=C(CC(=O)N1N=C(n2ccc3ccccc32)CC1c1ccccc1)Nc1cccc(Cl)c1 (stereo not given),> 100,> 100,> 100,> 100,,> 100,> 100,> 100,> 100,> 100,,,,,,,,,
CCCCCCCCCCCCCCCCOC(=O)C(C(=O)OCCCCCCCCCCCCCCCC)[N+](C)(C)CCOC(C)=O,42.6,31.3,18.5,41.2,42.1,35.4,45.7,30.7,33.1,32.6,,,,,,,,,
CC(C)c1cc(C(C)C)c(S(=O)(=O)NN)c(C(C)C)c1,> 100,> 100,> 100,> 100,,> 100,> 100,,> 100,> 100,,,,,,,,,
CC(=O)NNc1nc(C)c(C(=O)NNC(=O)C(=O)Nc2ccc(C)c(C)c2)s1,> 100,> 100,> 100,> 100,> 100,> 100,> 100,> 100,> 100,81.1,,,,,,,,,
COc1ccc(/C=C2/C(=O)N(C(=O)c3ccccc3O)N=C2C)cc1OC,> 100,> 100,> 100,> 100,40.5,> 100,0.591,> 100,> 100,10.5,,,,,,,,,
COc1ccc(/C=C/C(=O)c2sc(N)nc2C)cc1,> 100,> 100,> 100,> 100,,> 100,> 100,> 100,,> 100,,,,,,,,,
CCc1cccc(C(C)CC)c1N=C(NC(=O)c1ccccc1C(=O)NC(=Nc1c(CC)cccc1C(C)CC)SC)SC (stereo not given),> 100,> 100,39.2,> 100,57.1,> 100,53.5,> 100,> 100,> 100,,,,,,,,,
COC(=O)CCC(NC(=S)N/N=C(\C)c1ccccn1)C(=O)OC (stereo not given),> 100,> 100,> 100,> 100,> 100,> 100,> 100,> 100,> 100,> 100,,,,,,,,,
NC(=S)N/N=C(/CC(=O)c1ccc([N+](=O)[O-])cc1)C(=O)Nc1ncc([N+](=O)[O-])s1,> 100,> 100,> 100,> 100,> 100,> 100,> 100,> 100,> 100,> 100,,,,,,,,,
CC(=O)OC1(C#N)CC2OC1C1C2N1C(=O)c1ccccc1 (stereo not given),> 100,> 100,> 100,> 100,> 100,,> 100,> 100,> 100,,,,,,,,,,
CC(=O)OC1C=CC2CCN3C(=O)c4cc5c(cc4[C@H]1C23)OCO5 (stereo not given in full),> 100,> 100,,> 100,> 100,> 100,> 100,,> 100,> 100,,,,,,,,,
O=C1NC(=NCC(CO)c2ccccc2)S/C1=C\c1ccc2ncccc2c1 (stereo not given),> 25,,> 25,> 25,> 25,> 25,> 25,> 25,> 25,> 25,16.2,24.6,8.51,> 25,> 25,> 25,13.8,> 25,> 25
CCN1CCN(CCOc2ccc(CNc3ccc4nc(CCC5CCCCC5)[nH]c4c3)cc2)CC1,8.13,,3.09,3.08,4.94,3.95,3.52,5.07,2.87,4.34,2.61,2.22,1.32,0.925,1.57,1.99,1.89,1.99,1.93
O=C1NC(=NCc2cccs2)SC1Cc1ccc2ncccc2c1 (stereo not given),> 25,,> 25,> 25,> 25,> 25,> 25,> 25,> 25,> 25,18.5,> 25,10.7,10.3,24.7,> 25,13,11.6,15

Structure (SMILES),TGI [1] [µM],TGI [2] [µM],TGI [3] [µM],TGI [4] [µM],TGI [5] [µM],TGI [6] [µM],TGI [7] [µM],TGI [8] [µM],TGI [9] [µM],TGI [10] [µM],GI50 [1] [µM],GI50 [8] [µM],GI50 [9] [µM],GI50 [3] [µM],GI50 [4] [µM],GI50 [5] [µM],GI50 [10] [µM],GI50 [6] [µM],GI50 [7] [µM]
CN(C)CCNC(=O)c1cccc2nc3ccc4ccccc4c3nc12,0.253,1.46,0.392,,0.513,0.53,0.256,0.282,0.205,0.53,,,,,,,,,
CCCc1cc(=O)oc2c(C(=O)CC(C)C)c(O)c(CC=C(C)C)c(O)c12,> 50,,4.15,32.4,38.5,31.3,12.1,> 50,> 50,> 50,11.4,4.87,8.59,1.25,9.89,11.8,3.53,7.81,1.88
CSC1=Nc2c(c(C)c(-c3ccccc3)n2COC(CO)CO)C2=NC(=O)C(C)N12 (stereo not given),> 100,,> 100,> 100,> 100,> 100,> 100,> 100,> 100,> 100,> 100,> 100,> 100,> 100,> 100,> 100,> 100,> 100,70.1
O=C1C2=C(C(=O)c3c(O)ccc(O)c31)N(c1ccc(N3CCOCC3)nc1)Cc1ccccc1O2,9.11,,0.469,0.418,7.81,4.63,1.56,2.99,0.332,0.651,2.88,1.56,0.0966,0.202,0.134,1.91,0.227,2.01,0.369
O=C(N[C@H](c1ccc(Cl)c(Cl)c1)C1CNC1)c1ccc2cnccc2c1,16.5,,5.91,14.6,19.7,14.5,19.1,6.06,13.2,23.9,3.29,2.06,3.23,0.966,3.06,4.3,11.5,3.04,5.39
CC/C(=N\Nc1nc2ccccc2n1C)c1ccccn1,11.4,,4.82,10.3,1.05,1.28,0.839,7.23,11.8,10.9,0.103,0.314,< 0.01,0.184,0.127,0.117,< 0.01,0.17,0.142
C/C(=N\NC(=O)CC(=O)Nc1ccc(C)cc1)c1cc2ccccc2oc1=O,> 100,> 100,,> 100,> 100,> 100,> 100,,> 100,> 100,,,,,,,,,
Cc1ccc(-n2c3c(c4c(CN5CCCCC5)c(O)ccc42)CCc2ccccc2C3=O)cc1,> 100,,88.2,> 100,> 100,> 100,> 100,> 100,> 100,> 100,> 100,> 100,43.4,20,> 100,> 100,> 100,35.8,97.4
C/C(=N/O)C1CC=C(S(=O)(=O)c2ccccc2)C1 (stereo not given),> 100,> 100,> 100,> 100,> 100,> 100,,> 100,,> 100,,,,,,,,,
CC1=C(C(=O)Nc2cccc(C(F)(F)F)c2)C(c2ccc(O)cc2)C(C(=O)Nc2cccc(C(F)(F)F)c2)=C(C)N1,> 100,73.3,39.3,64.4,44.3,39.9,,36.3,28.1,31.8,,,,,,,,,
COc1cc(/C=C/C(=O)C(=Cc2ccc(F)c(F)c2)C(=O)/C=C/c2ccc(O)c(OC)c2)ccc1O,16.9,,6.05,37.3,12.1,25.1,5.14,3.79,4.01,4.78,3.34,1.98,1.79,2.51,5.61,3.39,1.91,3.63,1.93
C=CCN1C(=O)/C(=c2\sc3n(c2=O)C2C(NN=3)N(CC)C(=O)N2CC)c2ccccc21 (stereo not given),> 100,,9.2,> 100,> 100,> 33.7,> 62.1,> 100,> 100,2.35,1.21,1.28,0.403,0.842,1.28,2.19,0.377,0.455,0.612
CN(C)c1cccc(-c2cc(=O)c3ccccc3[nH]2)c1,> 100,> 100,,> 100,66.9,> 100,> 100,> 100,> 100,> 100,,,58.6,,,29.4,42.1,28,
CCCCCCN(CCCCCC)CCCNc1nccc2ccccc12,7.98,,2.47,3.91,3.5,2.24,3.41,3.75,2.2,3.55,2.64,1.98,0.832,1.01,1.94,1.61,1.73,0.951,1.69
COc1ccc(/C=C2\N=C(c3ccccc3)OC2=O)c(OCc2ccccc2)c1,> 100,77.2,,> 100,> 100,38.6,50,> 100,> 100,48.4,,,,,,,,,
O=C(CCCn1c2c(sc3ncccc32)c(=O)n2nnc(-c3ccccc3)c12)NCCc1cnc[nH]1,34.7,,39.5,37,29.3,16.3,30.5,29.9,10.1,23.6,8.74,2.03,0.378,17,18.1,11.7,11,1.75,16
O=C(Oc1cccnc1)c1ccccc1Nc1ccnc(C(F)(F)F)c1,> 100,,> 100,> 100,29.3,0.707,> 64.6,15.1,,0.453,0.589,0.363,0.0342,6.64,33.1,0.552,0.141,0.257,0.313
